According to BindingDB's records for patent US20230270751 (Reviral, 2023):

molecular target: T1, Nucleoprotein (Human respiratory syncytial virus A (strain A2), UniProt P03418); experiment: Not found
T1 sequence (P03418 whole entry): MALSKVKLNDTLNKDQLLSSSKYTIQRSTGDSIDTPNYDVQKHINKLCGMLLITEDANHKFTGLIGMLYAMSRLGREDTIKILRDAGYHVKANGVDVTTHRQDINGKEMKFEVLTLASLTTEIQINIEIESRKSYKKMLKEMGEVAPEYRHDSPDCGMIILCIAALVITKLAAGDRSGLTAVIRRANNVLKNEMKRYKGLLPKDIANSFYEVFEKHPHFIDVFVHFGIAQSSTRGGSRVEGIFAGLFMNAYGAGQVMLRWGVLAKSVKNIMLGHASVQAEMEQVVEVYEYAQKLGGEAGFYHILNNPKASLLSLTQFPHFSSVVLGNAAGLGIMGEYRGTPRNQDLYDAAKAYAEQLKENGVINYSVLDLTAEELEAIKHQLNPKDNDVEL
Excerpt: Not found

Question: For `O=C(N[C@H]1N=C(c2ccccc2)c2cccc(F)c2NC1=O)c1c(-c2ccccc2F)nn2c1OCC(C1CC1)C2` (stereo not given in full) [US20230270751, Example 13], which EC50 is on record?
Answer: 28 nM

Question: Which EC50 does the source give for `CN(C(=O)OC(C)(C)C)C1COc2c(C(=O)N[C@H]3N=C(c4ccccc4)c4cccc(F)c4NC3=O)c(-c3ccccc3F)nn2C1` (stereo not given in full) [US20230270751, Example 107] here?
Answer: 93 nM

Question: How did the EC50 turn out when `O=C(N[C@H]1N=C(c2ccccc2)c2cccc(F)c2NC1=O)c1c(-c2ccccc2F)nn2c1OCC(CN1CCOCC1)C2` (stereo not given in full) [US20230270751, Example 173] was run?
Answer: 91 nM

Question: How did the EC50 turn out when `O=C(N[C@H]1N=C(c2ccccc2)c2cccc(F)c2NC1=O)c1c(-c2ccccc2F)nn2c1OCC(CN1CCCC1)C2` (stereo not given in full) [US20230270751, Example 182] was run?
Answer: 78 nM

Question: Which EC50 does the source give for `O=C(N[C@H]1N=C(c2ccccc2)c2cccc(F)c2NC1=O)c1c(-c2c(F)cccc2F)nn2c1OCCC2` [US20230270751, Example 196] here?
Answer: 25 nM
